We go through four molecules from US5861405A, “S-substituted 1,3,7-trialkyl-xanthine derivatives” (priority 1994, dated 1999).

Bounds are passed on as bounds.

Assay [1] relates to rat brain A2a- vs. A1-receptors. As to conditions: cited from earlier work.
The next assay relates to locomotor activity. As to conditions: in vivo, cited from earlier work.
For assay [2], the target named is T1, rat A1 cortical receptors (Rattus norvegicus, UniProt P25099).
T1 construct: Rat cerebral cortical membranes and striatal membranes were prepared; from tissue; host or cells: rat cerebral cortex membranes
T1 sequence (P25099 1-326): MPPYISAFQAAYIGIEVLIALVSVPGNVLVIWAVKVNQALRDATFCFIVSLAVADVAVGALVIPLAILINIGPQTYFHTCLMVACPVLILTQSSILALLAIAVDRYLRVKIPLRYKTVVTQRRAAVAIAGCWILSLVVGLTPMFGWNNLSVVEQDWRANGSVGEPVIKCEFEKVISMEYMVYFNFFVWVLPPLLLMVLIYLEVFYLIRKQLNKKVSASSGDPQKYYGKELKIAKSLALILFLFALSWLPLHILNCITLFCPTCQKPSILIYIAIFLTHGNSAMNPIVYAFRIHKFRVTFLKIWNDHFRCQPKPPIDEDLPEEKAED
The assay is described as follows: Radioligand binding, [3H]N6-phenylisopropyladenosine ([3H]PIA), rat cortical A1 receptors. The note with it: Table VI; vs [3H]PIA; read-out: Inhibition of binding (Ki), rat cortex A1.
Experimental: The 1,3,7-trialkyl-8-substituted xanthine compounds of the present invention were tested in a radioligand binding assay for affinity at adenosine receptors in rat brain membranes.
The final concentration of DMSO in the assay medium was generally 2%.
Membranes (~100 μg protein per tube) were incubated for 1.5 h at 37° C. in a total volume of 0.5 ml of 50 mM Tris hydrochloride, at pH 7.4. Test drugs were dissolved in DMSO and added in 10 μl aliquots, resulting in a final DMSO concentration of 2%. Bound and free radioligand were separated by addition of 3 ml of a buffer containing 50 mM Tris hydrochloride, pH 7.4, at 5° C., followed by vacuum filtration using a Brandel Cell Harvester (Brandel, Gaithersburg, Md.) and a Whatman GF/B glass fiber filter with additional washes totaling 9 ml of buffer. Non-specific binding was determined with 10 μM 2-chloroadenosine.
At least six different concentrations spanning three orders of magnitude, adjusted appropriately for the IC50 of each compound, were used.

Assay [3] concerns locomotor activity in mice. The assay can be described thus: Locomotor activity in mice, open field (Digiscan activity monitor). The format is in vivo, mouse. The note with it: for Behavioral stimulation: typical dose 10 (mg/kg, i.p.).
Experimental: Adult male mice of the NIH (Swiss) strain weighing 25-30 g were housed in groups of 10 animals per cage with a light-dark cycle of 12:12 h. The animals were given free access to standard pellet food and water and were acclimatized to laboratory conditions for 24 h prior to testing. Each animal was used only once in the activity monitor.
Locomotor activity of individual animals was studied in an open field using a Digiscan activity monitor (Omnitech Electronics Inc., Columbus, Ohio) equipped with an IBM-compatible computer. The computer-tabulated measurements represent multivariate locomotor analysis with specific measures, such as simultaneous measurements of ambulatory, rearing, stereotypical, and rotational behaviors. Data were collected in the morning, for three consecutive intervals of 10 minutes each, and analyzed separately and as a group. Statistical analysis was performed using the Student t test. […] Drugs were administered i.p. in a volume corresponding to 5 ml/kg body weight. Where applicable, the antagonist was injected 10 minutes before the agonist. ED50 values were determined using regression analysis on the InPlot software (GraphPAD, San Diego, Calif.).
Assay [4] concerns locomotor activity in mice. The note with it: postinjection (Baumgold et al.); cited from earlier work.
Assay [5] has as its target A1 receptors, guinea pig brain. As to conditions: vs [3H]CHA in guinea pig brain; read-out: Ki (A1), Shimada et al.; cited from earlier work.
The target in assay [6] is A2 receptors, rat striatum. As to conditions: vs [3H]NECA in rat striatum; read-out: Ki (A2a), Shimada et al.; cited from earlier work.
Another assay has as its target A2 receptors, rat brain. As to conditions: read-out: Ki (A2a), Erickson et al.; cited from earlier work.
The target in assay [7] is rat striatal A2a receptors (Rattus norvegicus, UniProt P30543). The assay can be described thus: Radioligand binding, [3H]CGS 21680, rat striatal A2a receptors. Details: Rat cerebral cortical membranes and striatal membranes were prepared; from tissue; host or cells: rat striatal membranes. As to conditions: Table I; vs [3H]CGS21680 (5 nM), rat striatal A2 receptors; read-out: Ki (A2a).

Assay [8] concerns the target T2, A2a receptor, human platelets (Homo sapiens, UniProt P29274).
T2 construct: PC12) cell membranes or in human platelets; from tissue; host or cells: human platelets
The assay can be described thus: Antagonism of NECA-elicited stimulation of adenylate cyclase, human platelets. The format is biochemical.

Assay [9] addresses T3, A2a receptor, rat pheochromocytoma (PC12) cells (Rattus norvegicus, UniProt P30543).
T3 construct: via an A2a receptor in rat pheochromocytoma (PC12) cell membranes; endogenous in cells; host or cells: PC12 cells (rat pheochromocytoma)
The assay is described as follows: biochemical. As to conditions: Table VI; read-out: Adenylate cyclase (KB), rat PC12 cells A2a.

Assay [10] concerns the target A1 receptor, rat adipocytes (Rattus norvegicus, UniProt P25099). The assay is described as follows: biochemical.
Experimental: KB values were calculated using the Schild equation from the ratio of EC50 values for agonist in the presence and absence of antagonist.
Assay [11] deals with A2a receptors, rat striatum (Rattus norvegicus, UniProt P30543). The assay is described as follows: Radioligand binding vs [3H]N-ethylcarboxamidoadenosine, rat striatum. Also on record: Striatal tissue was isolated by dissection of rabbit, bovine, and rat brain; tissue Pel-Freeze Biologicals Co; host or cells: rat striatal membranes (frozen brain). The note with it: Table VI; vs [3H]NECA; read-out: Inhibition of binding (Ki), rat striatum A2a.
Sequence of A2a receptors, rat striatum (P30543 whole entry): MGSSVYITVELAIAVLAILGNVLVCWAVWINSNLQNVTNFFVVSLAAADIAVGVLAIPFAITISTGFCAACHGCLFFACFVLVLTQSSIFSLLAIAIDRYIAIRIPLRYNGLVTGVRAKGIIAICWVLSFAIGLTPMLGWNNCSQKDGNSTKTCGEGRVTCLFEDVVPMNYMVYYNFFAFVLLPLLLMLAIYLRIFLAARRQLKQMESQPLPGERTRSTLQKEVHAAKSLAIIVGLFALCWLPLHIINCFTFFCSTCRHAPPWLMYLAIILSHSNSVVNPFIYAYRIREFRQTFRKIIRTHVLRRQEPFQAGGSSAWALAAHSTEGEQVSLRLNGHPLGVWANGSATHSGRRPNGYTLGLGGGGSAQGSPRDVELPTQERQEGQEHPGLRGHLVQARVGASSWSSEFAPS

T2 sequence (P29274 whole entry): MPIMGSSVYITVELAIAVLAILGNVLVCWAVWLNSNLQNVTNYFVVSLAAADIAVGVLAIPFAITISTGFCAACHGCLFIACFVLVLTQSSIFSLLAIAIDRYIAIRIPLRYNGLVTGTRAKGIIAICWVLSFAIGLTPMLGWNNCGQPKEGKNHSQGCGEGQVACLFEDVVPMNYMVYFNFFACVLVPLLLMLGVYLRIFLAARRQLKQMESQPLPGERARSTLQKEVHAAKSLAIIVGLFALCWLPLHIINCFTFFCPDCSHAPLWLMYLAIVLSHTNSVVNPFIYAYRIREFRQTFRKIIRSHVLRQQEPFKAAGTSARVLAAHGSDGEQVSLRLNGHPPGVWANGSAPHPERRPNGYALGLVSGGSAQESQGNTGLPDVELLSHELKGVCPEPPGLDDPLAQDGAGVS
Sequence of rat striatal A2a receptors (P30543 whole entry): as the sequence (P30543 whole entry) above
T3 sequence (P30543 whole entry): as above

With `Nc1nc2ccc(Cl)cc2n2c(-c3ccccc3)nnc12` [CP66,713], the “selectivity A2a vs. A1” value in [1] was 12 fold. The “effect on A1 depression of locomotor activity” value with locomotor activity (same dose) is “no effect on A1 depression of locomotor activity”. In addition, the “antagonism of A2 depression of locomotor activity” value in the assay on locomotor activity is “partial antagonism of A2 depression of locomotor activity”.

Usually Ki stands for the dissociation constant of the complex between target and ligand, obtained from inhibition or displacement. Consider `Cn1c(=O)c2[nH]c(C3CCCC3)nc2n(C)c1=O` [CPT, 8-cyclopentyltheophylline, reference compound], for which the inhibition constant (Ki) in [2] is 24 nM. The “locomotor stimulation, in words” value in assay [3] (mice) is recorded as “moderate, but transient, locomotor stimulation”. Moreover, in assay [3], the Behavioral stimulation result is “++”. Moreover, in assay [4], the “time until stimulatory effect disappears” value is reported as no more than 20 min.

With `CCCn1c(=O)c2[nH]c(/C=C/c3ccccc3)nc2n(CCC)c1=O` [Compound 47], the Ki in assay [5] was 1800 nM; in assay [6], 26 nM; on A2 receptors, rat brain, 85 nM; in [7], 44 ± 19 nM.

Take `C#CCn1c(=O)c2c(ncn2C)n(C)c1=O` [DMPX, 3,7-dimethyl-1-propargylxanthine]: the values for the Ki in [2] and in [11] were 45000 nM and 16000 nM, respectively. For the same molecule, the values for the Kb in assay [8], in assay [9] and in [10] were 4000 nM, 9600 nM and 94000 nM, respectively. The Behavioral stimulation result in [3] is reported as “+++”.
